Experimental data taken from PMC7823583, “Discovery of Potent Dual EGFR/HER2 Inhibitors Based on Thiophene Scaffold Targeting H1299 Lung Cancer Cell Line” (Pharmaceuticals, 2020).

How the values were obtained:
NSCLC cell line H1299 = experiment: In vitro cytotoxic activity against H1299, sulfo-rhodamine B (SRB) assay; details: Homo sapiens, NCI-H1299, 48 h, read-out: IC50 against H1299
Experimental: The potential cytotoxic activity of the target compounds on H1299 lung cancer cell line was tested using sulfo-rhodamine B (SRB) assay according to Skehan method [20]. Single cells were plated in 96-multiwell plates for 24 h before treatment with the compounds. A single concentration of the tested compounds was added to the cell monolayer. Monolayer cell was incubated with the compounds for 48 h at 37 °C and in atmosphere of 5% CO2. After 48 h, cell was fixed, washed and stained with Sulforhodamine-B stain. Acetic acid was then used to wash excess stain and attached stain was recovered with Tris ethylenediaminetetraacetic acid (EDTA) buffer. Color intensity was measured in an enzyme-linked immunosorbent assay (ELISA).

EGFR = EGFR (Homo sapiens, UniProt P00533); details: earlier study of the group; read-out: IC50 against EGFR; cited from earlier work
HER2 = HER2 (Homo sapiens, UniProt P04626); experiment: HER2 kinase inhibitory assay (Kinase-Glo Plus luminescence kinase assay); assay type: biochemical; details: read-out: IC50 against HER2
Sequence of HER2 (P04626 23-1255): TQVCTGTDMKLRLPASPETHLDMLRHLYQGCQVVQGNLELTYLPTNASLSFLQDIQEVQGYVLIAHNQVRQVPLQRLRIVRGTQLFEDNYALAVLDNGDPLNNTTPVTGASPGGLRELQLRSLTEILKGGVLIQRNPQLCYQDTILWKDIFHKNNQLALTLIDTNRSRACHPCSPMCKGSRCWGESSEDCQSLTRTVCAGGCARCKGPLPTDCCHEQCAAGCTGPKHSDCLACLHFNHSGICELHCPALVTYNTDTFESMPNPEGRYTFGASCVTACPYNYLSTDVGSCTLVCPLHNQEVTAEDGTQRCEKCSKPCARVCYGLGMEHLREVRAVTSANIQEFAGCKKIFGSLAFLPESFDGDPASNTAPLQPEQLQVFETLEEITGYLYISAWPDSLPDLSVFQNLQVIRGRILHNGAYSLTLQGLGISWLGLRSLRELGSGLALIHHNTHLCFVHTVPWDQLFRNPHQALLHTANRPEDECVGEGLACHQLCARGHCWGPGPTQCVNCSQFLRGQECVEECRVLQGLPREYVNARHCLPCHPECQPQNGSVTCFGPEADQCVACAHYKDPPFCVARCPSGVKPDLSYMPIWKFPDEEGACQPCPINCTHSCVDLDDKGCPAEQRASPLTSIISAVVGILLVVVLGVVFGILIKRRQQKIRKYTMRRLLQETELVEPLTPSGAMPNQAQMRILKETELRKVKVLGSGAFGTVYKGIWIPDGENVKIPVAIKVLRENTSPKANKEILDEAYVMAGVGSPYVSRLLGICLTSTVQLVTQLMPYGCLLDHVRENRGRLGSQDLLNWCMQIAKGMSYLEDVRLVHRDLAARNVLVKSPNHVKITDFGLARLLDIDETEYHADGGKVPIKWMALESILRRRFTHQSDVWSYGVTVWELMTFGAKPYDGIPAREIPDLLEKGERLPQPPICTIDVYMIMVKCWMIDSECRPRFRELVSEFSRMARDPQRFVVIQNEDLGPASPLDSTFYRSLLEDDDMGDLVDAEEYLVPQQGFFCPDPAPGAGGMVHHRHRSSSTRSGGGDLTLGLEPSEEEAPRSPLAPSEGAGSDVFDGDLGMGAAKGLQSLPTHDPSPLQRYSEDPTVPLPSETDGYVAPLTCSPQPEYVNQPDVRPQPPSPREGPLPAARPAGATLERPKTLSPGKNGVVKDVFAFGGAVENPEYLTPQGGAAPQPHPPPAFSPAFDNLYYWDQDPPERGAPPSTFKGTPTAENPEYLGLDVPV

Sequence of EGFR (P00533 25-1210): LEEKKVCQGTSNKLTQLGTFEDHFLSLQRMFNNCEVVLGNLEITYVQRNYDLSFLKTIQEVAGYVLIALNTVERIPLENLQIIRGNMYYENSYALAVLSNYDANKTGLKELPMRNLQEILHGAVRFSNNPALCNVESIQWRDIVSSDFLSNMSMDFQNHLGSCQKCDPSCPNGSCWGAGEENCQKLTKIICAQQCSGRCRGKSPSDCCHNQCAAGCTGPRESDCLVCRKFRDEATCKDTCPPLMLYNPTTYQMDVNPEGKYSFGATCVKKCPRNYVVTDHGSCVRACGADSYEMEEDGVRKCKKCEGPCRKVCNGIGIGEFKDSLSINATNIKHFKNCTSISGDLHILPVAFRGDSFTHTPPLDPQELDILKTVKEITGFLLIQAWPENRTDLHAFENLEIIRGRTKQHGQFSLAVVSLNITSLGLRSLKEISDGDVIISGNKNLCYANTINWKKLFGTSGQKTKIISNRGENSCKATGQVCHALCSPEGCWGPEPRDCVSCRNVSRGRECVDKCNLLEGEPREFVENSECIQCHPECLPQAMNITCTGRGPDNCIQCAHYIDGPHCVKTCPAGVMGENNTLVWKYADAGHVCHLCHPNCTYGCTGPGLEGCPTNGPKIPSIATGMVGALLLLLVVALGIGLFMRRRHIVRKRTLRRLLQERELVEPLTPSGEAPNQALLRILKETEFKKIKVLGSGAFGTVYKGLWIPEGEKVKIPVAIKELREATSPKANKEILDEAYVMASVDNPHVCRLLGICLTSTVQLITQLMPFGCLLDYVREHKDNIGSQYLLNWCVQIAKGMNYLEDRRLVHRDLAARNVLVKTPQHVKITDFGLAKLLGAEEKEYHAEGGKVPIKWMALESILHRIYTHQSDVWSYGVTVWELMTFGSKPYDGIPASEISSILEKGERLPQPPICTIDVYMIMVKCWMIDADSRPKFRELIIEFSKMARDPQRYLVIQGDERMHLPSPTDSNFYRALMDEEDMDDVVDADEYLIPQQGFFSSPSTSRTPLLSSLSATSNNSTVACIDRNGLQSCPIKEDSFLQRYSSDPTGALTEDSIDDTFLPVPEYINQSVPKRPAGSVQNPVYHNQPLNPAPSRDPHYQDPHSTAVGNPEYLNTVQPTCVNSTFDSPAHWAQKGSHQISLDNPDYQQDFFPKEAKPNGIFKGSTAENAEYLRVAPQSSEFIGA

Row | IC50 (HER2) [nM] | SMILES | IC50 (NSCLC cell line H1299) [nM] | IC50 (EGFR) [nM]
1 |  | Cc1cc(C)c2c(NCC(=O)Nc3sc4c(c3C#N)CCCC4)n[nH]c2n1 [Compound 21b, N-(3-Cyano-4,5,6,7-tetrahydrobenzo[b]thiophen-2-yl)-2-(4,6-dimethyl-1H-pyrazolo[3,4-b]pyridin-3-ylamino)acetamide] | 13.7 | 
2 |  | COc1ccc(C=NNCC(=O)Nc2sc3c(c2C#N)CCCC3)cc1 [Compound 25b, N-(3-Cyano-4,5,6,7-tetrahydrobenzo[b]thiophen-2-yl)-2-(2-(4-methoxybenzylidene)hydrazinyl)acetamide] | 18.5 | 
3 |  | Oc1ccccc1C=Nc1cccc(Nc2nnnc3sc4c(c23)CCCC4)c1 [Compound 15b, 3-(5,6,7,8-Tetrahydro-7H-cyclohexa[4:5]thieno[2,3-d][1,2,3]triazin-4-ylamino)-N-(2-hydroxybenzylidene)benzene-1,3-diamine] | 34 | 
4 |  | Oc1ccc(Nc2nnnc3sc4c(c23)CCC4)cc1 [Compound 8, reference compound] |  | ~38
5 |  | Nc1cccc(Nc2nnnc3sc4c(c23)CCC4)c1 [Compound 13a, 3-(5,6-dihydro-7H-cyclopenta[4:5]thieno[2,3-d][1,2,3]triazin-4-ylamino)benzene-1,3-diamine] | 28.8 | 
6 |  | C(=Nc1cccc(Nc2nnnc3sc4c(c23)CCC4)c1)c1ccccc1 [Compound 14a, 3-(5,6-Dihydro-7H-cyclopenta[4:5]thieno[2,3-d][1,2,3]triazin-4-ylamino)-N-benzylidenebenzene-1,3-diamine] | 25.7 | 
7 |  | Oc1ccccc1C=Nc1cccc(Nc2nnnc3sc4c(c23)CCC4)c1 [Compound 15a, 3-(5,6-Dihydro-7H-cyclopenta[4:5]thieno[2,3-d][1,2,3]triazin-4-ylamino)-N-(2-hydroxybenzylidene)benzene-1,3-diamine] | 32.8 | 
8 |  | N#Cc1c(NC(=O)CNN=Cc2cccc([N+](=O)[O-])c2)sc2c1CCCC2 [Compound 25a, N-(3-Cyano-4,5,6,7-tetrahydrobenzo[b]thiophen-2-yl)-2-(2-(3-nitrobenzylidene)hydrazinyl)acetamide] | 18.5 | 
9 |  | N#Cc1c(NC(=O)CNc2onc3ncccc23)sc2c1CCCC2 [Compound 23, N-(3-Cyano-4,5,6,7-tetrahydrobenzo[b]thiophen-2-yl)-2-(isoxazolo[3,4-b]pyridin-3-ylamino)acetamide] | 18.4 | 
10 |  | Nc1cccc(Nc2nnnc3sc4c(c23)CCCC4)c1 [Compound 13b, 3-(5,6,7,8-Tetrahydro-7H-cyclohexa[4:5]thieno[2,3-d][1,2,3]triazin-4ylamino)benzene-1,3-diamine] | 25 | ~0.33
11 |  | O=[N+]([O-])c1cccc(C=Nc2cccc(Nc3nnnc4sc5c(c34)CCCC5)c2)c1 [Compound 17b, 3-(5,6,7,8-Tetrahydro-7H-cyclohexa[4:5]thieno[2,3-d][1,2,3]triazin-4-ylamino)-N-(3-nitrobenzylidene)benzene-1,3-diamine] | 38.1 | 
12 | 0.14 | N#Cc1c(NC(=O)CNc2n[nH]c3ncccc23)sc2c1CCCC2 [Compound 21a, 2-(1H-Pyrazolo[3,4-b]pyridin-3-ylamino)-N-(3-cyano4,5,6,7-tetrahydrobenzo[b]thiophen-2-yl)acetamide] | 12.5 | 
